Measurements reported in patent US8084467B2, “Pyrazole derivatives as cannabinoid receptor antagonists” (University of Connecticut, priority 2004, dated 2011).
Values joined by “and” are separate entries in the source; they are usually repeats but may differ in a detail not shown here. Equal values may be shown once. Read-outs that look alike come from different tables or passages of the source.

Columns and labels:
CB1 cannabinoid receptor = target: T1, CB1 cannabinoid receptor (Rattus norvegicus, UniProt P20272); experiment: CB1 receptor binding, rat forebrain membranes, [3H] CP-55,940 displacement; conditions: for Ki: 0.8 nM [3H] CP-55,940; for selectivity CB1: ratio of CB2 Ki to CB1 Ki
T1 construct: membranes were prepared from rat forebrain membranes; from tissue; host or cells: rat forebrain
T1 sequence (P20272 whole entry): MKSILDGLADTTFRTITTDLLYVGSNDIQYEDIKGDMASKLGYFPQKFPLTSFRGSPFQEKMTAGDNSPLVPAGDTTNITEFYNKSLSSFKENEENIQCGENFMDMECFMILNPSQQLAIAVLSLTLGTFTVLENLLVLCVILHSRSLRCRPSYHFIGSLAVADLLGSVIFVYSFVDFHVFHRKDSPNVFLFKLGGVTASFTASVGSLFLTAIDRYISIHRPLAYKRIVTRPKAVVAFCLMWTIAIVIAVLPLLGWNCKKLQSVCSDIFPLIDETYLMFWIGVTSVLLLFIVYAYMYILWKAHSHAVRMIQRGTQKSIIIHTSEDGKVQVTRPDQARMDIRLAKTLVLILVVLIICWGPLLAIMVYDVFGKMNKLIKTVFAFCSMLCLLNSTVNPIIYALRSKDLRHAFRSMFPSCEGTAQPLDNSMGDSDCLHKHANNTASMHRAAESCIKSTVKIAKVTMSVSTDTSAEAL
Procedure: Some of the inventive analogs were tested for CB2 receptor binding affinity and for CB1 receptor affinity (to determine selectivity). […] The lower the Ki value the higher the binding affinity. […]
Membranes, previously frozen at −80° C., were thawed on ice. To the stirred suspension was added three volumes of TME (25 mM Tris-HCl buffer, 5 mM MgCl2 and 1 mM EDTA) at a pH 7.4. The suspension was incubated at 4° C. for 30 min. At the end of the incubation, the membranes were pelleted and washed three times with TME.
(§1) The treated membranes were subsequently used in the binding assay described below. Approximately 30 μg of membranes were incubated in silanized 96-well microtiter plate with TME containing 0.1% essentially fatty acid-free bovine serum albumin (BSA), 0.8 nM [^3H] […] Radioactivity was detected using MicroScint 20 scintillation cocktail added directly to the dried filterplates, and the filterplates were counted using a Packard Instruments Top-Count. […] Data collected from three independent experiments performed with duplicate determinations was normalized between 100% and 0% specific binding for [^3H] […] The normalized data was analyzed using a 4-parameter nonlinear logistic equation to yield IC50 values.

CB2 receptor = target: T2, CB2 receptor (Mus musculus, UniProt P47936); experiment: CB2 receptor binding, mouse spleen membranes, same manner as the CB1 binding assay; conditions: for Ki: [3H] CP-55,940; for selectivity CB2: ratio of CB1 Ki to CB2 Ki
T2 construct: membranes were prepared from frozen mouse spleen; from tissue; host or cells: mouse spleen
T2 sequence (P47936 whole entry): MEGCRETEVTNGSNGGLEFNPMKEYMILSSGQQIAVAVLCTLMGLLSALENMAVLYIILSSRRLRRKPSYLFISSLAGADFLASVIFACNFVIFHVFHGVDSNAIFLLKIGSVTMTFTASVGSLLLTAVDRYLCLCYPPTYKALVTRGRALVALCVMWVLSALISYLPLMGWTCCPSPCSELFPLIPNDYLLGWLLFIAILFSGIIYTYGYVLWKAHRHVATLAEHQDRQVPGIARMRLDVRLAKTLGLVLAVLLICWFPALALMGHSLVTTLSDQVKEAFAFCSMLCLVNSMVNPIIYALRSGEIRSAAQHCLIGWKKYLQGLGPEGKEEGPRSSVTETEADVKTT
Procedure: Some of the inventive analogs were tested for CB2 receptor binding affinity and for CB1 receptor affinity (to determine selectivity). […] The lower the Ki value the higher the binding affinity.
as §1
Silanized centrifuge tubes were used throughout to minimize receptor loss due to adsorption. The CB2 binding assay was conducted in the same manner as for the CB1 binding assay. The binding affinities (Ki) were also expressed in nanomoles (nM).

[1] = rat forebrain membranes, read-out: affinities Ki CB1
[2] = mouse spleen membranes, read-out: affinities Ki CB2
[3] = affinities Ki CB1, rat forebrain membranes
[4] = affinities Ki CB2, mouse spleen membranes

SMILES | Ki (CB1 cannabinoid receptor; [1]) | selectivity CB1 (CB1 cannabinoid receptor) | Ki (CB2 receptor; [2]) | selectivity CB2 (CB2 receptor) | Ki (CB1 cannabinoid receptor; [3]) | Ki (CB2 receptor; [4])
O=C(NN1CCCCC1)c1nn(-c2ccc(Cl)cc2Cl)c(-c2ccc(-c3cccnc3)cc2)c1CF [Compound 1-6] | 0.0151 µM | 128 | 1.93 µM | – | – | –
Cn1nnnc1-c1ccc(-c2c(CO)c(C(=O)NC3CCCCC3)nn2-c2ccc(Cl)cc2Cl)cc1 [Compound 2-11] | 0.118 µM | 1 | 0.122 µM | – | – | –
COCc1c(C(=O)NC2CCCCC2)nn(-c2ccc(Cl)cc2Cl)c1-c1ccc(Br)cc1 [Compound 1-9] | 0.004 µM | 124 | 0.495 µM | – | – | –
Cc1c(C(=O)N(C)C2CCCCC2)nn(-c2ccc(Cl)cc2Cl)c1-c1ccc(-c2nnn(C)n2)cc1 [Compound 2-15] | 0.105 µM | 5.2 | 0.551 µM | – | – | –
CN(C(=O)c1nn(-c2ccc(Cl)cc2Cl)c(-c2ccc(-c3nnnn3C)cc2)c1CO)C1CCCCC1 [Compound 2-17] | 1.08 µM | 1.3 | 1.41 µM | – | – | –
Cc1c(C(=O)N(C)C2CCCCC2)nn(-c2ccc(Cl)cc2Cl)c1-c1ccc(-c2nnnn2C)cc1 [Compound 2-14] | 1.27 µM | – | 0.941 µM | 1.4 | – | –
O=C(NN1CCCCC1)c1nn(-c2ccc(Cl)cc2Cl)c(-c2ccc(Br)cc2)c1CO [Compound 3-3] | – | 10.6 | – | – | 0.046 µM | 0.49 µM
O=C(NC1CCCCC1)c1nn(-c2ccc(Cl)cc2Cl)c(-c2ccc(-c3nnn[nH]3)cc2)c1CO [Compound 2-10] | 0.192 µM | 2.4 | 0.463 µM | – | – | –
Cc1c(C(=O)NN2CCCCC2)nn(-c2ccc(Cl)cc2Cl)c1-c1ccc(C(N)=S)cc1 [Compound 3-25] | 0.086 µM | 1.5 | 0.127 µM | – | – | –
Cc1c(C(=O)NC2CCCCC2)nn(-c2ccc(Cl)cc2Cl)c1-c1ccc(-c2nnn(C)n2)cc1 [Compound 2-9] | 0.02 µM | 19 | 0.381 µM | – | – | –
Cc1c(C(=O)NC23CC4CC(CC(C4)C2)C3)nn(CCCCCN=[N+]=[N-])c1-c1ccccc1 [Compound 4-11] | – | – | – | 4 | 0.00396 µM and 0.004 µM | 0.000965 µM and 0.001 µM
Cc1c(C(=O)NC23CC4CC(CC(C4)C2)C3)nn(CCCCCCl)c1-c1ccccc1 [Compound 4-2] | – | – | – | 1.8 | 0.00142 µM and 0.0014 µM | 0.000704 µM and 0.0008 µM
O=C(Nc1nn(-c2ccc(Cl)cc2Cl)c(-c2ccc(Br)cc2)c1CO)NC1CCCCC1 [Compound 2-19] | 0.009 µM | 546.7 | 4.92 µM | – | – | –
Cc1c(C(=O)NCC2CCC3CC2C3(C)C)nn(CCCCCCl)c1-c1ccccc1 (stereo not drawn) [Compound 4-8] | – | – | – | 2 | 0.00122 µM and 0.0012 µM | 0.000615 µM and 0.0006 µM
CN(C)CCOCc1c(C(=O)NC2CCCCC2)nn(-c2ccc(Cl)cc2Cl)c1-c1ccc(Br)cc1 [Compound 1-16] | 0.024 µM | 5.8 | 0.14 µM | – | – | –
COCc1c(C(=O)NC2CCCCC2)nn(-c2ccc(Cl)cc2Cl)c1-c1ccc(I)cc1 [Compound 1-22] | 0.015 µM | 45 | 0.675 µM | – | – | –
Cc1c(NC(=O)NC2CCCCC2)nn(-c2ccc(Cl)cc2Cl)c1-c1ccc(-c2cccnc2)cc1 [Compound 2-22] | 0.029 µM | 374.6 | 10.9 µM | – | – | –
Cc1c(C(=O)NC2CCCCC2)nn(-c2ccc(Cl)cc2Cl)c1-c1ccc(-c2nnnn2C)cc1 [Compound 2-8] | 0.12 µM | 8.9 | 1.07 µM | – | – | –
CCOCc1c(C(=O)NN2CCCCC2)nn(-c2ccc(Cl)cc2Cl)c1-c1ccc(Br)cc1 [Compound 1-12] | 0.046 µM | 11 | 0.49 µM | – | – | –
Cc1c(C(=O)N(C)C2CCCCC2)nn(-c2ccc(Cl)cc2Cl)c1-c1ccc(C#N)cc1 [Compound 3-15] | 0.05 µM | 216.5 | 10.8 µM | – | – | –
COCOCc1c(C(=O)N2CCCCC2)nn(-c2ccc(Cl)cc2Cl)c1-c1ccc(Br)cc1 [Compound 1-14] | 0.395 µM | 7.8 | – | – | – | 3.1 µM
Cc1c(C(=O)N(C)C2CCCCC2)nn(-c2ccc(Cl)cc2Cl)c1-c1ccc(-c2ccncc2)cc1 [Compound 3-6] | 0.189 µM | 17.4 | 3.29 µM | – | – | –
CN(C(=O)c1nn(-c2ccc(Cl)cc2Cl)c(-c2ccc(-c3nnn[nH]3)cc2)c1CO)C1CCCCC1 [Compound 2-16] | 0.293 µM | 3.8 | 1.12 µM | – | – | –

SMILES | Ki (CB1 cannabinoid receptor; [1]) | selectivity CB1 (CB1 cannabinoid receptor) | Ki (CB2 receptor; [2]) | selectivity CB2 (CB2 receptor) | Ki (CB1 cannabinoid receptor; [3]) | Ki (CB2 receptor; [4])
Cc1c(NC(=O)C2CCCCC2)nn(-c2ccc(Cl)cc2Cl)c1-c1ccc(Br)cc1 [Compound 3-14] | 4.23 µM | 6.4 | – | – | – | 27.1 µM
Cn1nnnc1-c1ccc(-c2c(CO)c(C(=O)NN3CCCCC3)nn2-c2ccc(Cl)cc2Cl)cc1 [Compound 2-5] | 0.203 µM | 10.5 | 2.13 µM | – | – | –
Cc1c(C(=O)NN2CCCCC2)nn(-c2ccc(Cl)cc2Cl)c1-c1ccc(-c2ccccc2Cl)cc1 [Compound 1-3] | 0.0851 µM | 16 | 1.37 µM | – | – | –
Cc1c(NC(=O)OC2CCCCC2)nn(-c2ccc(Cl)cc2Cl)c1-c1ccc(Br)cc1 [Compound 3-9] | 0.069 µM | 6.5 | 0.449 µM | – | – | –
CN(C(=O)Nc1nn(-c2ccc(Cl)cc2Cl)c(-c2ccc(Br)cc2)c1CO)C1CCCCC1 [Compound 2-21] | 0.296 µM | 15.1 | 4.47 µM | – | – | –
Cc1c(C(=O)NN2CCCCC2)nn(-c2ccc(Cl)cc2Cl)c1-c1ccc(-c2ccc(Cl)cc2)cc1 [Compound 1-2] | 0.0058 µM | 274 | 1.59 µM | – | – | –
Cc1c(NC(=O)N2CCCCC2)nn(-c2ccc(Cl)cc2Cl)c1-c1ccc(Br)cc1 [Compound 3-13] | 0.047 µM | 6.0 | 0.284 µM | – | – | –
Cc1c(C=Cc2ccccc2)nn(-c2ccc(Cl)cc2Cl)c1-c1ccc(Br)cc1 [Compound 1-23] | 0.331 µM | 49.6 | 16.4 µM | – | – | –
O=C(NN1CCCCC1)c1nn(-c2ccc(Cl)cc2Cl)c(-c2ccc(-c3nnn[nH]3)cc2)c1CO [Compound 2-4] | 1.84 µM | 7.4 | 13.6 µM | – | – | –
Cc1c(C(=O)NN2CCCCC2)nn(-c2ccc(Cl)cc2Cl)c1-c1ccc(-c2nnnn2C)cc1 [Compound 2-2] | 0.09 µM | 2.7 | 0.242 µM | – | – | –
Cc1c(C(=O)NN2CCCCC2)nn(-c2ccc(Cl)cc2Cl)c1-c1ccc(-c2cccc(Cl)c2)cc1 [Compound 1-1] | 0.0015 µM | 491 | 0.741 µM | – | – | –
COCc1c(C(=O)NC2CCCCC2)nn(-c2ccc(Cl)cc2Cl)c1-c1ccc(-c2ccsc2)cc1 [Compound 1-17] | 0.241 µM | 4.0 | 0.968 µM | – | – | –
Cc1c(NC(=O)N(C)C2CCCCC2)nn(-c2ccc(Cl)cc2Cl)c1-c1ccc(Br)cc1 [Compound 3-11] | 0.029 µM | 31.6 | 0.917 µM | – | – | –
COCc1c(C(=O)NC2CCCCC2)nn(-c2ccc(Cl)cc2Cl)c1-c1ccc(-c2cccnc2)cc1 [Compound 1-18] | 0.062 µM | 10.4 | 0.646 µM | – | – | –
Cc1c(C(=O)NC2CC(C)C3CC2C3(C)C)nn(CCCCCCl)c1-c1ccccc1 (stereo not drawn) [Compound 4-7] | – | – | – | 1.7 | 0.00473 µM and 0.0047 µM | 0.00276 µM and 0.0028 µM
Cc1c(NC(=O)NC2CCCCC2)nn(-c2ccc(Cl)cc2Cl)c1-c1ccc(Br)cc1 [Compound 3-8] | 0.0068 µM | 635.2 | 4.32 µM | – | – | –
Cc1c(C(=O)NCC23CC4CC(CC(C4)C2)C3)nn(CCCCCCl)c1-c1ccccc1 [Compound 4-5] | – | – | – | 3 | 0.0198 µM and 0.02 µM | 0.00665 µM and 0.0066 µM
O=C(NN1CCCCC1)c1nn(-c2ccc(-c3cccnc3)cc2Cl)c(-c2ccc(-c3cccnc3)cc2)c1CO [Compound 3-19] | 0.146 µM | 13.2 | 1.92 µM | – | – | –
Cc1c(C=Cc2ccccc2)nn(-c2ccc(Cl)cc2Cl)c1-c1ccc(Br)cc1 [Compound 1-24] | 0.141 µM | 75.0 | 10.6 µM | – | – | –
CCOCc1c(C(=O)NC2CCCCC2)nn(-c2ccc(Cl)cc2Cl)c1-c1ccc(Br)cc1 [Compound 1-10] | 0.054 µM | 16 | 0.842 µM | – | – | –
CCCCCC=Cc1nn(-c2ccc(Cl)cc2Cl)c(-c2ccc(Br)cc2)c1C [Compound 1-26] | 7.68 µM | 6.9 | – | – | – | 52.9 µM
CN(C(=O)c1nn(-c2ccc(Cl)cc2Cl)c(-c2ccc(I)cc2)c1CO)C1CCCCC1 [Compound 3-2] | – | 29.3 | – | – | 0.018 µM | 0.528 µM
Cc1c(CCC2CCCCC2)nn(-c2ccc(Cl)cc2Cl)c1-c1ccc(Br)cc1 [Compound 1-27] | 1.04 µM | 25.3 | 26.4 µM | – | – | –
